Data reported in patent US10890588B2, “Compositions and methods for detecting cancer cells in a tissue sample” (ISI Life Sciences, Inc., priority 2016, dated 2021).

Experiments:
Type in all cases: cell-based
[1] = system: SDOV3 cells (an ovarian cancer cell line); experiment: Detection of ovarian cancer cells: absorption and intracellular deacylation to a fluorescent structure, fluorescence microscopy; conditions: folate-free medium (no FBS), washed with HBSS, 20× immersion objective
Description: Compound 24 and comparative compound A were evaluated for their ability to be absorbed by cancer cells and then, in the case of compound 24, deacylated by intracellular esterases so as to regenerate a fluorescent structure. Specifically, approximately 500,000 SDOV3 cells (an ovarian cancer cell line) were seeded into separate 35 mm culture dishes containing a folate-free growth medium (RPMI+10% FBS). The next day, the medium was replaced with a folate-free medium (no FBS). In one culture dish, the medium was supplemented with 25 micromolar of compound 24; and, in another culture dish, the medium was supplemented with 50 micromolar of comparative compound A. After incubation, the cells were washed with HBSS (Hank's balanced salt solution) to remove unbound compound. The cells were then imaged with a 20× immersion objective on a standard upright fluorescent microscope. […] FIG. 1 illustrates a picture showing the fluorescence generated. Note that only the cancer cells evidenced fluorescence and that the solution remained non-fluorescent. […] This evidences that that composition was not suitable for use in the methods described herein.

SKOV3 cells = experiment: Dose response of fluorescence generated in SKOV3 cells; conditions: 1 hour; for Mean intensity: SKOV3 cells, RPMI + 0.25% BSA, image J
Description: This experiment establishes that compound 24 provides a dose response relative to the fluorescence generated. Specifically, SKOV3 cells were incubated with 10 μM, 25 μM, or 50 μM of compound 24 in RPMI supplemented with 0.25% BSA. Cells were incubated for 1 hour then washed with HBSS and imaged as before.
All images were analyzed using exactly the same parameters using the image J software suite. Mean intensity was measured from identical regions with in each image. […] While BSA was used as a supplement, acylated BSA may be more practical.

[2] = target: T1, folate binding protein (folate receptor) on SKOV3 cells (Homo sapiens, UniProt P15328); experiment: Folate competition: labeling of ovarian cancer cells via the folic acid receptor; conditions: 10 μM compound alone vs 10 μM + 1 mM folate (100×)
T1 construct: endogenous in cells; host or cells: SKOV3 cells
Description: This example establishes that compound 24 is specific for the folate receptor. Specifically, compound 24 was used in a folate free medium and in a medium using excess folate that competed with compound 24. The rationale is that in the presence of excess folate, compound 24 would have to compete for binding to the folate binding protein and therefore there would be less signal than when compound 24 was the sole source of folate.
To test this hypothesis, SKOV3 cells were incubated with 10 μM of compound 24 or with 10 μM of compound 24+1 mM folate (100×s). Cells were then washed and imaged as before.
All images were analyzed using exactly the same parameters. Mean intensity was measured from identical regions with in each image. […] These images establish that compound 24 binds to cells through the folate binding protein and not by some other route.

[3] = system: MCF7 cells, a breast cancer cell line that expresses folate binding protein; experiment: Labeling of MCF7 cells (correlation between folic acid receptors and fluorescence intensity); conditions: MCF cells, 10 uM, one hour, folate-free RPMI, no FBS
Description: In this experiment, the procedures set forth above were repeated with the exception that SKOV3 cells were replaced with MCF7 cells—a breast cancer cell line that expresses folate binding protein albeit at a level lower than that of the SKOV3 cells. […] However, the fluorescent intensity generated by the MCF7 cells was less than that generated by SKOV3 cells.
Specifically, MCF cells were labeled at 10 uM with compound 24 for one hour in folate-free RPMI, no FBS. Cells were washed and imaged.

T1 sequence (P15328 25-234): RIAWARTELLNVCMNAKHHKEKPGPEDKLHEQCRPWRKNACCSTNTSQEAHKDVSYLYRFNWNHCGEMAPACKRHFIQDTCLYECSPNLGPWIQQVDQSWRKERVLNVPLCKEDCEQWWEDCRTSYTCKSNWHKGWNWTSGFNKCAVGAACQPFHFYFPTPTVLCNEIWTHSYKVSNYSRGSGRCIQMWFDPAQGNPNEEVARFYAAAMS

Row | Compound | fluorescent signal of cancer cells after incubation ([1]; 50 micromolar) | Mean intensity (SKOV3 cells; 10 μM) | Mean intensity (SKOV3 cells; 25 μM) | Mean intensity (SKOV3 cells; 50 μM) | dose response in labeling cells (SKOV3 cells; SKOV3 cells, 10, 25, 50 μM) | fluorescent signal of cancer cells after incubation ([1]; 25 micromolar) | competition by excess folate for labeling ovarian cancer cells [2] | labeling of cells (fluorescence) [3]
1 | Nc1nc2ncc(CNc3ccc(C(=O)NC(CCC(=O)NCCCCCNC(=O)c4cccc(-c5c6ccc(=O)cc-6oc6cc(O)ccc56)c4C(=O)O)C(=O)O)cc3)nc2c(=O)[nH]1 (centres unmarked) [comparative compound A, reference compound] | showed a burst of fluorescence but immediately the fluorescence was bleached | – | – | – | – | – | – | –
2 | O,O′-(5-(3-(4-((4-(4-(((2-amino-4-oxo-3,4-dihydropteridin-6-yl)methyl)amino)benzamido)-5-methoxy-5-oxopentanamido)methyl)phenyl)thioureido)-3-oxo-3H-spiro[isobenzofuran-1,9′-xanthene]-3′,6′-diyl) bis)(2-methoxyethyl) Disuccinate [compound 24] | – | 312.8 | 360.4 | 545.5 | clear dose response | clear, consistent and unambiguous | folate competes with compound 24 | labeling is faint
